Values of other authors in patent publication US4761405A, “Antagonists of specific excitatory amino acid neurotransmitter receptors having increased potency” (priority 1987, dated 1988).

Columns and labels:
[1] = test system: ischemic brain damage; conditions: intrahippocampally; rodent carotid artery occlusion model; cited from earlier work
[2] = test system: neurotoxic and convulsive actions of NMDA, IBO and Quin; conditions: in vivo; cited from earlier work
[3] = test system: chemically-induced seizures; conditions: rodents; cited from earlier work
[4] = test system: electroshock-induced seizures; conditions: mice; cited from earlier work
[5] = test system: photically-induced myoclonus; conditions: i.v.; baboon; cited from earlier work
[6] = test system: audiogenically-induced seizures; conditions: i.c.v. and i.v.; genetically susceptible mice; cited from earlier work

Compound: N[C@H](CCCCCP(=O)(O)O)C(=O)O [AP7, D(-)-2-amini-7-phosphonoheptanoic acid]
- Effect on ischemic brain damage [1]: markedly reduce or eliminate ischemic brain damage
- Effect on neurotoxic and convulsive actions of NMDA, IBO and Quin (but not KA) [2]: interferring with the neurotoxic and convulsive actions of NMDA, the exogenous excitotoxin, IBO, and the endogenous excitotoxin Quin (but not KA)
- Effect on chemically-induced seizures [3]: prevents chemically-induced seizures
- Effect on threshold current for electroshock-induced seizures [4]: increased threshold current for electroshock-induced seizures
- Effect on photically-induced myoclonus [5]: suppresses photically-induced myoclonus
- Protection against audiogenically-induced seizures [6]: protects against audiogenically-induced seizures
